These results are taken from patent US20020115640A1, “Farnesyltransferase inhibitors” (priority 2000, published 2002).

In one test the target is T1, farnesyltransferase (Rattus norvegicus, UniProt Q02293+Q04631).
T1 construct: The enzyme can be purified according to Cell, 62: 81-88 (1990), utilizing steps one, two, and three; from tissue; host or cells: rat brain
T1 sequence (Q02293 whole entry, one chain of several): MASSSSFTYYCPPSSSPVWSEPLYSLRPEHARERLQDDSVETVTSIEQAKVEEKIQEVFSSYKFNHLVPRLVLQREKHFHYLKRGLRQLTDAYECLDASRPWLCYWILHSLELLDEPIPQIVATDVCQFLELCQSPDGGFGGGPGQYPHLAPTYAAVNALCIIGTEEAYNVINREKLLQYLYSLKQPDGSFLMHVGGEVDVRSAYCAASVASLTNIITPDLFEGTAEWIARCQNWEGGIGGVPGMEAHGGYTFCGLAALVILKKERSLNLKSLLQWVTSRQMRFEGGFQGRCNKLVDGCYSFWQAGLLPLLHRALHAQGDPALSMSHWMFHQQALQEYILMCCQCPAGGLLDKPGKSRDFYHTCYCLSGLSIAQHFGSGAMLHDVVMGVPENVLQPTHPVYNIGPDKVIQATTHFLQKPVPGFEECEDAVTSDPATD
The test can be described thus: Inhibition of farnesyltransferase (3H-farnesyldiphosphate / H-Ras filter assay). It counts as biochemical. As to conditions: test compound at 10^−8 M; 3H-farnesyldiphosphate 0.6 μM, H-Ras 5.0 μM, 37° C., 30 minutes.
By inhibition is commonly meant the relative decrease from the control value, in per cent. Higher therefore signals a response far below the control. `Cn1cncc1C(O)(COc1ccc(C#N)cc1-c1ccc2c(c1)OC(F)(F)O2)c1ccc(C#N)cc1` (stereo not shown) [Example 79, 4-(2-(4-cyanophenyl)-2-hydroxy-2-(1-methyl-1H-imidazol-5-yl)ethoxy)-3-(2,2-difluoro-1,3-benzodioxol-5-yl)benzonitrile]: the inhibition at 0.01 µM worked out at 96%.
Same read-out and setting: next, `Cn1cncc1C(F)(COc1ccc(C#N)cc1-c1ccc2c(c1)OC(F)(F)O2)c1ccc(C#N)cc1` (stereo not shown) [Example 80, 4-(2-(4-cyanophenyl)-2-fluoro-2-(1-methyl-1H-imidazol-5-yl)ethoxy)-3-(2,2-difluoro-1,3-benzodioxol-5-yl)benzonitrile]: 90%.
The compound `Cn1cncc1C(O)(COc1ccc(C#N)cc1-c1cccc2ccccc12)c1ccc(C#N)cc1` (stereo not shown) [Example 81, 4-(2-(4-cyanophenyl)-2-hydroxy-2-(1-methyl-1H-imidazol-5-yl)ethoxy)-3-(1-naphthyl)benzonitrile] gave an inhibition at 0.01 µM of 90%.
As to `N#Cc1ccc(C(O)(COc2ccc(C#N)cc2-c2ccc(OC(F)(F)F)cc2)c2cncs2)cc1` (stereo not shown) [Example 82, 6-(2-(4-cyanophenyl)-2-hydroxy-2-(1,3-thiazol-5-yl)ethoxy)-4′-(trifluoromethoxy)-1,1′-biphenyl-3-carbonitrile], the inhibition at 0.01 µM stood at 15%.
`Cn1cncc1C(N)(COc1ccc(C#N)cc1-c1ccc(OC(F)(F)F)cc1)c1ccc(C#N)cc1` (stereo not shown) [Example 83, 6-(2-amino-2-(4-cyanophenyl)-2-(1-methyl-1H-imidazol-5-yl)ethoxy)-4′-(trifluoromethoxy)-1,1′-biphenyl-3-carbonitrile] displayed an inhibition at 0.01 µM of 96%.
Compound `COc1cccc(-c2cc(C#N)ccc2N(C)CC(O)(c2ccc(C#N)cc2)c2cncn2C)c1` (stereo not shown) [Example 84, 6-((2-(4-cyanophenyl)-2-hydroxy-2-(1-methyl-1H-imidazol-5-yl)ethyl)(methyl)amino)-3′-methoxy-1,1′-biphenyl-3-carbonitrile] yielded an inhibition at 0.01 µM of 92%.
On to `COc1cccc(-c2cc(C#N)ccc2N(C)CC(F)(c2ccc(C#N)cc2)c2cncn2C)c1` (stereo not shown) [Example 85, 6-((2-(4-cyanophenyl)-2-fluoro-2-(1-methyl-1H-imidazol-5-yl)ethyl)(methyl)amino)-3′-methoxy-1,1′-biphenyl-3-carbonitrile], for which the inhibition at 0.01 µM was determined as 65%.
Compound `CN(CC(O)(c1ccc(C#N)cc1)c1cncn1C)c1ccc(C#N)cc1-c1ccc(OC(F)(F)F)cc1` (stereo not shown) [Example 86, 6-((2-(4-cyanophenyl)-2-hydroxy-2-(1-methyl-1H-imidazol-5-yl)ethyl)(methyl)amino)-4′-(trifluoromethoxy)-1,1′-biphenyl-3-carbonitrile] came in with an inhibition at 0.01 µM of 94%.
`Cc1ccnc(NC(=O)c2cc(C#N)ccc2COC(c2ccc(C#N)cc2)c2cncn2C)c1` (stereo not shown) [Example 87, 5-cyano-2-(((4-cyanophenyl)(1-methyl-1H-imidazol-5-yl)methoxy)methyl)-N-(4-methylpyridin-2-yl)benzamide]: at 0.01 µM the inhibition was 91%.
On the same count and under the same terms, next, `Cn1cncc1C(OCc1ccc(C#N)cc1C(=O)Nc1cccc(Cl)c1)c1ccc(C#N)cc1` (stereo not shown) [Example 88, N-(3-chlorophenyl)-5-cyano-2-(((4-cyanophenyl)(1-methyl-1H-imidazol-5-yl)methoxy)methyl)benzamide]: 90%.
With `CCCn1cc(-c2cc(C#N)ccc2COC(c2ccc(C#N)cc2)c2cncn2C)ccc1=O` (stereo not shown) [Example 91, 4-(((4-cyanophenyl)(1-methyl-1H-imidazol-5-yl)methoxy)methyl)-3-(6-oxo-1-propyl-1,6-dihydropyridin-3-yl)benzonitrile], the inhibition at 0.01 µM was found to be 77%.
Take `CCCOc1ccc(-c2cc(C#N)ccc2COC(c2ccc(C#N)cc2)c2cncn2C)cn1` (stereo not shown) [Example 92, 4-(((4-cyanophenyl)(1-methyl-1H-imidazol-5-yl)methoxy)methyl)-3-(6-propoxypyridin-3-yl)benzonitrile]: 0.01 µM produced 94% inhibition.

Still in this test, the particulars now being: test compound at 10^−9 M (stated in the cell); 3H-farnesyldiphosphate 0.6 μM, H-Ras 5.0 μM, 37° C., 30 minutes.
As for `Cn1cncc1C(OCc1ccc(C#N)nc1-c1ccc2c(c1)OC(F)(F)O2)c1ccc(C#N)cc1` (stereo not shown) [Example 89, 5-(((4-cyanophenyl)(1-methyl-1H-imidazol-5-yl)methoxy)methyl)-6-(2,2-difluoro-1,3-benzodioxol-5-yl)pyridine-2-carbonitrile], the inhibition at 0.001 µM was 75%.
